Laboratory results from US11040957B2, “Heteroaromatic compounds useful for the treatment of proliferative diseases” (Syros Pharmaceuticals, Inc., priority 2013, dated 2021).
Blank lines part the entries; values can stand above or below the molecule they belong to.

Columns and labels:
[1] = molecular target: T1, CDK7 (Homo sapiens, UniProt P50613); test: ADAPTA kinase assay, CDK7 (Life Technologies); assay type: biochemical; settings: co-factors cyclin H and MNAT1; 10 μM down to 0.514 nM, 3-fold serial dilutions; read-out: CDK7 calculated IC50
T1 construct: purchased Life Technologies (Grand Island, N.Y.), ADAPTA kinase assay service

[2] = molecular target: T2, CDK1 (Homo sapiens, UniProt P06493); test: Z'-LYTE kinase assay, CDK1; assay type: biochemical; settings: cyclin B co-factor
T2 construct: purchased Life Technologies (Grand Island, N.Y.), Z'-LYTE kinase assay service
Method: (§1) Compounds of the invention were assayed for activity against a variety of different kinases at Life Technologies™ (Grand Island, N.Y.) using their commercially available ADAPTA® (for CDK7, CDK9/cyclin T1, and IRAK1 kinases), Z′-LYTE® (for CDK1, CDK2, CDK5/p25, CDK5/p35, JNK1 and JNK2 kinases) and LANTHASCREEN EU® (for CDK8, CDK9/cyclin K and MLK3) kinase assay services. Test compounds were tested at 100 nM and 1 μM final concentrations in 1% DMSO against all kinases except CDK7. For CDK7, test compounds were tested at concentrations ranging from 10 μM down to 0.514 nM in a series of 3-fold serial dilutions. Details of these assays, including substrates used for each kinase, are available on the Life Technologies web site (www.lifetechnologies.com/). The results of the assay are shown below in Tables 2A and 2B. […] The co-factors used for each kinase in the assays were as follows CDK1—cyclin B; CDK2—cyclin A; CDK5—p25 or p35 as indicated; CDK7—cyclin H and MNAT1; CDK8—cyclin C; CDK9—cyclin K or cyclin T1 as indicated; IRAK1—Histone H3 (1-20) peptide; JNK1—none required; JNK2—none required; MLK3—none required.

[3] = molecular target: T3, CDK2 (Homo sapiens, UniProt P24941); test: Z'-LYTE kinase assay, CDK2; assay type: biochemical; settings: cyclin A co-factor
T3 construct: purchased Life Technologies (Grand Island, N.Y.), Z'-LYTE kinase assay service
Method: as §1

[4] = molecular target: T4, CDK5/p25 (Homo sapiens, UniProt Q00535); test: Z'-LYTE kinase assay, CDK5/p25; assay type: biochemical
T4 construct: purchased Life Technologies (Grand Island, N.Y.), Z'-LYTE kinase assay service
Method: as §1

[5] = molecular target: T5, CDK5/p35 (Homo sapiens, UniProt Q00535); test: Z'-LYTE kinase assay, CDK5/p35; assay type: biochemical; settings: p35 co-factor
T5 construct: purchased Life Technologies (Grand Island, N.Y.), Z'-LYTE kinase assay service
Method: as §1

[6] = molecular target: T6, CDK8 (Homo sapiens, UniProt P49336); test: LANTHASCREEN EU kinase assay, CDK8; assay type: binding; settings: cyclin C co-factor
T6 construct: purchased Life Technologies (Grand Island, N.Y.), LA[…] kinase assay service
Method: as §1

[7] = molecular target: T7, CDK9/cyclin T1 (Homo sapiens, UniProt P50750); test: ADAPTA kinase assay, CDK9/cyclin T1; assay type: biochemical; settings: cyclin T1 co-factor
T7 construct: purchased Life Technologies (Grand Island, N.Y.), ADAPTA kinase assay service
Method: as §1

[8] = molecular target: T8, CDK9/cyclin K (Homo sapiens, UniProt P50750); test: LANTHASCREEN EU kinase assay, CDK9/cyclin K; assay type: binding; settings: cyclin K co-factor
T8 construct: purchased Life Technologies (Grand Island, N.Y.), LANTHASCREEN EU kinase assay service
Method: as §1

[9] = molecular target: T9, JNK1 (Homo sapiens, UniProt P45983); test: Z'-LYTE kinase assay, JNK1; assay type: biochemical
T9 construct: purchased Life Technologies (Grand Island, N.Y.), Z'-LYTE kinase assay service
Method: as §1

[10] = molecular target: T10, JNK2 (Homo sapiens, UniProt P45984); test: Z'-LYTE kinase assay, JNK2; assay type: biochemical
T10 construct: purchased Life Technologies (Grand Island, N.Y.), Z'-LYTE kinase assay service
Method: as §1

[11] = system: Jurkat cells; test: Inhibition of proliferation of Jurkat cells ([…]-GLO, 72 hour); assay type: cell-based; settings: Homo sapiens
Method: Representative compounds of the invention were tested at different concentrations (from 10 μM to […]; 0.5 log serial dilutions) for their ability to inhibit the proliferation of Jurkat cells. Cells were grown in RPMI 1640+10% FBS+1% Glutamax supplemented with FBS (Life Technologies) and 100 U.mL^−1 penicillin, 100 μg·mL^−1 streptomycin (Invitrogen) and cultured at 37° C. in a humidified chamber in the presence of 5% CO2. Proliferation assays were conducted over a 72 hour time period. […]-GLO® (Promega Corporation, Madison, Wis. USA) was used to assess the anti-proliferative effects of the compounds following manufacturer's directions and utilizing the reagents supplied with the […]-GLO® kit. In this table, “A” represents an IC50 of less than 500 nM; “B” an IC50 of between 500 nM and 5 μM; and “C” an IC50 of greater than 5 μM.

[12] = molecular target: T11, MLK3 (Homo sapiens, UniProt Q16584); test: LANTHASCREEN EU kinase assay, MLK3; assay type: binding; settings: calculated; read-out: C50 against MLK3
T11 construct: purchased Life Technologies (Grand Island, N.Y.), LA[…] kinase assay service
Method: as §1, with “Test compounds were tested at 100 nM and 1 μM final concentrations in 1% DMSO against all kinases except CDK7.” left out

T4 sequence (Q00535 whole entry): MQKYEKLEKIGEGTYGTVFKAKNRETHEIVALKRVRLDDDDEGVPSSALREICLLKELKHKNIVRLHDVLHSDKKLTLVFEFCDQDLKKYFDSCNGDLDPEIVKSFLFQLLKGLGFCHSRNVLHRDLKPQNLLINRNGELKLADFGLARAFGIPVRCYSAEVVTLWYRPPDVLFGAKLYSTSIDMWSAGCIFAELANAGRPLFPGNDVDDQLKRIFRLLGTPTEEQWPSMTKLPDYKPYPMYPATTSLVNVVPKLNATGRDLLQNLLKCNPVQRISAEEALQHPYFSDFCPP
T4 sequence (Q15078 99-307 partner limits assumed): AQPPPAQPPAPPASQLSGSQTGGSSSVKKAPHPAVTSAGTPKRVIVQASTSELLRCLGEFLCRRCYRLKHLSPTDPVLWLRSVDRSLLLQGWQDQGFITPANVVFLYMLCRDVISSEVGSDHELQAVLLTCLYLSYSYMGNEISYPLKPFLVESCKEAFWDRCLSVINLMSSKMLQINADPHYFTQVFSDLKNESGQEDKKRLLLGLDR
T9 sequence (P45983 whole entry): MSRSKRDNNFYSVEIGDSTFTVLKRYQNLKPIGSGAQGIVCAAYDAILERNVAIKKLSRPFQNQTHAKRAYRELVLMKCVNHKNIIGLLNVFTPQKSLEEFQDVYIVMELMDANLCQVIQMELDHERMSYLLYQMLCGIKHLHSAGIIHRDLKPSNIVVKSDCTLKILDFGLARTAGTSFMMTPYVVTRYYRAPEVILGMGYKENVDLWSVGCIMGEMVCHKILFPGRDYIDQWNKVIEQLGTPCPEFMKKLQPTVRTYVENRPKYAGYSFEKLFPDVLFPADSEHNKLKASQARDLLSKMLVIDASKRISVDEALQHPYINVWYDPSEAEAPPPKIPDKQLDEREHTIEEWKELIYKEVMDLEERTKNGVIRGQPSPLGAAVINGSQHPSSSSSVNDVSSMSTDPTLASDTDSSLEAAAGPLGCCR
T1 sequence (P50613 whole entry): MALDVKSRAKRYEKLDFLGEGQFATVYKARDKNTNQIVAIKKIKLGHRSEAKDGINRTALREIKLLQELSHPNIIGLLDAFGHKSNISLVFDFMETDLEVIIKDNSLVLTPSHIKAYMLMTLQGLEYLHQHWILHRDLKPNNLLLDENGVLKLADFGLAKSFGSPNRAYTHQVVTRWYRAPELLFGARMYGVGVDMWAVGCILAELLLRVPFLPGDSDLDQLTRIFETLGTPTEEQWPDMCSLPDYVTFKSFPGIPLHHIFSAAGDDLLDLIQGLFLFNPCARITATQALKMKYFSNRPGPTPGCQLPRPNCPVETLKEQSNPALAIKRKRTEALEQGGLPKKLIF
T1 sequence (P51946 whole entry partner): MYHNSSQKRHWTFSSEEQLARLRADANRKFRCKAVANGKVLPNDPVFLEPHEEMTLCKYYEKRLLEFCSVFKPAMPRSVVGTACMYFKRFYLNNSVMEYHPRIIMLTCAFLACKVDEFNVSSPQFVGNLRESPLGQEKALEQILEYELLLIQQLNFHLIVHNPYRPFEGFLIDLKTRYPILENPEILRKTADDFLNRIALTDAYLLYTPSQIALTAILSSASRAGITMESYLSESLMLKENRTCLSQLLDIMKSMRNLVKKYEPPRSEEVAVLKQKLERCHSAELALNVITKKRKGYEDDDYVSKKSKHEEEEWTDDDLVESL
T1 sequence (P51948 whole entry partner): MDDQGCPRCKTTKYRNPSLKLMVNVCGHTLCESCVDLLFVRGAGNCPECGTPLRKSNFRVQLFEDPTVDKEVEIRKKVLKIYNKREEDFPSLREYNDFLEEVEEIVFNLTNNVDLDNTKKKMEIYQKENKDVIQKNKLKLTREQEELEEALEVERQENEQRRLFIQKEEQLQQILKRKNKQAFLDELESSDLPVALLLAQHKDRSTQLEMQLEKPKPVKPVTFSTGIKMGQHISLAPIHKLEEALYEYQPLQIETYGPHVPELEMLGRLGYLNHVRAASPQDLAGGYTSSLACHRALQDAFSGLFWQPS
T10 sequence (P45984 whole entry): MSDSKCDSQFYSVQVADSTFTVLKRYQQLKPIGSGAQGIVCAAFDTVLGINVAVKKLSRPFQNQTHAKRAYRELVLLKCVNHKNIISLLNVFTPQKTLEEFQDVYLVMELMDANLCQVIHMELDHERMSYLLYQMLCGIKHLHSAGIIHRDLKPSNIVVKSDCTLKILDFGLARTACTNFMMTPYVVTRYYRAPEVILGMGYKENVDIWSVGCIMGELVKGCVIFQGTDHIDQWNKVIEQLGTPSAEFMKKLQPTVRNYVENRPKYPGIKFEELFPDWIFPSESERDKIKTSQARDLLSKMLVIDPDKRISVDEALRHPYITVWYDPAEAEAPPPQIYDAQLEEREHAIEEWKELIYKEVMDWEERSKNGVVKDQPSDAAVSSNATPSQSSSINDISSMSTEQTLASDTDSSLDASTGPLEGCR
T6 sequence (P49336 whole entry): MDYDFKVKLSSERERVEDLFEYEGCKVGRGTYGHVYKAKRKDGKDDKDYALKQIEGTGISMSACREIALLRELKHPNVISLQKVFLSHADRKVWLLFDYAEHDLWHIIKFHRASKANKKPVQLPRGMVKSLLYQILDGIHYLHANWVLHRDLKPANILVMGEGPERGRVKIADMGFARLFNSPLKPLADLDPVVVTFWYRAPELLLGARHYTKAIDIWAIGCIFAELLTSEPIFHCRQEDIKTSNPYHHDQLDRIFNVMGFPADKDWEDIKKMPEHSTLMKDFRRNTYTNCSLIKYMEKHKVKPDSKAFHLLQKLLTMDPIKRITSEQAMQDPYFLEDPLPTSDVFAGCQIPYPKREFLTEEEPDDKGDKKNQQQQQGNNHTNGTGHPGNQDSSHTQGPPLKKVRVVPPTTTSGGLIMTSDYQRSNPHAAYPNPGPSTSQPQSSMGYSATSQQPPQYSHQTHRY
T6 sequence (P24863 whole entry partner): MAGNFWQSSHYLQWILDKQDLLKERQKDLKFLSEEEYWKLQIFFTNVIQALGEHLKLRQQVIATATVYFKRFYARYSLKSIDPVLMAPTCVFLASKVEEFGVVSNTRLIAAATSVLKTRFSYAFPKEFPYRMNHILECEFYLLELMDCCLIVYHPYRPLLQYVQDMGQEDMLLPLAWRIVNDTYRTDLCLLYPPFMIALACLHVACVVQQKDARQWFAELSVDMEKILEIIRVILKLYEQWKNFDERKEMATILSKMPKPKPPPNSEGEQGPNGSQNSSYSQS
T2 sequence (P06493 whole entry): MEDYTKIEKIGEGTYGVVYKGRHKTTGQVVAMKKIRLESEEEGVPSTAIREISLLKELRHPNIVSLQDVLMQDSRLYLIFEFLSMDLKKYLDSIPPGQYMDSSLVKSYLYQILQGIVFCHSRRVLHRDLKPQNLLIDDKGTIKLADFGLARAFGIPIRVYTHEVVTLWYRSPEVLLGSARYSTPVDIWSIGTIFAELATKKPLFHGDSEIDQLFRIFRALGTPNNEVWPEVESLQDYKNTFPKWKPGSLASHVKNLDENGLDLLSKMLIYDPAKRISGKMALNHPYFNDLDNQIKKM
T2 sequence (P14635 whole entry partner): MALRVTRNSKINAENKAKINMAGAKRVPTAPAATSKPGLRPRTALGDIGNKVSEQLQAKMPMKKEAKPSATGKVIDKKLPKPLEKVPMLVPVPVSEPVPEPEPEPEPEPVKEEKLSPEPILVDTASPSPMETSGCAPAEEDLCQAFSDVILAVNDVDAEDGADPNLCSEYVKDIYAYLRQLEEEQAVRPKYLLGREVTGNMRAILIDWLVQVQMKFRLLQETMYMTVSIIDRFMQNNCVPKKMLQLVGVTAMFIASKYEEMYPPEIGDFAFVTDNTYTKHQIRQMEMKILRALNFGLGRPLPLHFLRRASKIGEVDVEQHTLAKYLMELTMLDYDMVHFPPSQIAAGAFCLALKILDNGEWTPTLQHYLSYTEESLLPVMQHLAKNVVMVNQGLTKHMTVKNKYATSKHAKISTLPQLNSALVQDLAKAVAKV
T8 sequence (P50750 whole entry): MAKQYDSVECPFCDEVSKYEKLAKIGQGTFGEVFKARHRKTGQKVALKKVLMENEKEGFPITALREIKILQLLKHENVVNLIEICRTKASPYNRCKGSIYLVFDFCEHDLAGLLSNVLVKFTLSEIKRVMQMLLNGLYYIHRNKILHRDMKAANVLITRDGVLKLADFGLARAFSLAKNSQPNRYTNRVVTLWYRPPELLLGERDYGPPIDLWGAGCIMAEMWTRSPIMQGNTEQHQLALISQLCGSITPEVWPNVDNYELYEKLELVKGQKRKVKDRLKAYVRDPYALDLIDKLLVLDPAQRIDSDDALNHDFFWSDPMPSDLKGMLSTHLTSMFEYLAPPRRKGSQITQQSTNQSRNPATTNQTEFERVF
T8 sequence (O75909 whole entry partner): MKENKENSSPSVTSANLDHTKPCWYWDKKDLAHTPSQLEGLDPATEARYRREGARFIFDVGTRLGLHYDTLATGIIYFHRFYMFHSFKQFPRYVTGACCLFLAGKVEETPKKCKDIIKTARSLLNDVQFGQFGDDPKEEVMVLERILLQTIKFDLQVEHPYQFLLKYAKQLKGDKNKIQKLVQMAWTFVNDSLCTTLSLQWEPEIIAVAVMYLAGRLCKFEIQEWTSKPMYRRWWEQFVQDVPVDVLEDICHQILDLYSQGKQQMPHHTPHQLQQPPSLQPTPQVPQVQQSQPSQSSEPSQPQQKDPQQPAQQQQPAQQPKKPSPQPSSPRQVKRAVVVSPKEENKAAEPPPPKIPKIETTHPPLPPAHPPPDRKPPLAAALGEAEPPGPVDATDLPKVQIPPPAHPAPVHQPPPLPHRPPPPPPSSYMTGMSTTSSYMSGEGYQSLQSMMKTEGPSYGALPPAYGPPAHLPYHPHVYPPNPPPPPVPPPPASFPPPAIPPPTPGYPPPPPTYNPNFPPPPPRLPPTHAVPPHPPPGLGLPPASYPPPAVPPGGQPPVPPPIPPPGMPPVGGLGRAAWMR

IC50 [1]: 100 to 1000 nM
inhibition at 0.1 µM ([2]; compound tested at 100 nM): < 50%
inhibition at 1 µM ([2]; compound tested at 1 μM): < 50%
inhibition at 0.1 µM ([3]; compound tested at 100 nM): < 50%
inhibition at 1 µM ([3]; compound tested at 1 μM): < 50%
inhibition at 0.1 µM ([4]; compound tested at 100 nM, p25 co-factor): < 50%
inhibition at 1 µM ([4]; compound tested at 1 μM, p25 co-factor): < 50%
inhibition at 0.1 µM ([5]; compound tested at 100 nM): < 50%
inhibition at 1 µM ([5]; compound tested at 1 μM): < 50%
inhibition at 0.1 µM ([6]; compound tested at 100 nM): < 50%
inhibition at 1 µM ([6]; compound tested at 1 μM): < 50%
inhibition at 0.1 µM ([7]; compound tested at 100 nM): < 50%
inhibition at 1 µM ([7]; compound tested at 1 μM): < 50%
inhibition at 0.1 µM ([8]; compound tested at 100 nM): < 50%
inhibition at 1 µM ([8]; compound tested at 1 μM): < 50%
inhibition at 0.1 µM ([9]; compound tested at 100 nM): 50 to 70%
inhibition at 1 µM ([9]; compound tested at 1 μM): > 70%
inhibition at 0.1 µM ([10]; compound tested at 100 nM): < 50%
inhibition at 1 µM ([10]; compound tested at 1 μM): > 70%
IC50 [11]: 500 to 5000 nM
SMILES: CN(C)C/C=C/C(=O)Nc1ccc(C(=O)N2CCCC(CNc3ncc(Cl)c(-c4c[nH]c5ccccc45)n3)C2)cc1 (stereo not drawn) [Compound 101, (E)-N-(4-(3-((5-chloro-4-(1H-indol-3-yl)pyrimidin-2-ylamino)methyl)piperidine-1-carbonyl)phenyl)-4-(dimethylamino)but-2-enamide]

IC50 ([4]; p25 as co-factor, calculated, read-out: IC50 against CDK5): 3000 nM
IC50 [12]: 3200 nM
IC50 [11]: < 500 nM
SMILES: CN(C)C/C=C/C(=O)Nc1ccc(C(=O)N2CCCC(Nc3ncc(Cl)c(-c4c[nH]c5ccccc45)n3)C2)cc1 (stereo not drawn) [Compound 100, (E)-N-(4-(3-(5-chloro-4-(1H-indol-3-yl)pyrimidin-2-ylamino)piperidine-1-carbonyl)phenyl)-4-(dimethylamino)but-2-enamide]

IC50 [1]: 100 to 1000 nM
SMILES: CN(C)C/C=C/C(=O)Nc1ccc(NC(=O)N2CCCC(Nc3ncc(Cl)c(-c4c[nH]c5ccccc45)n3)C2)cc1 (stereo not drawn) [Compound 102]
